These results are taken from patent US12473263B2, “Bicyclic inhibitors of CBX chromodomains” (Icahn School of Medicine At Mount Sinai, priority 2019, dated 2025).

One assay deals with PC3 cells. The assay is described as follows: MTT assay for cell viability. It is filed as cell-based. The conditions noted are these: doses of 0, 1, 2.5, 3.75, 5.0, 8.0 micromolar. How it is done:
The MTT assay is used to measure cellular metabolic activity as an indicator of cell viability, proliferation and cytotoxicity. This colorimetric assay is based on the reduction of a yellow tetrazolium salt (3-(4,5-dimethylthiazol-2-yl)-2,5-diphenyltetrazolium bromide or MTT) to purple formazan crystals by metabolically active cells. The viable cells contain NAD(P)H-dependent oxidoreductase enzymes which reduce the MTT to formazan. The insoluble formazan crystals are dissolved using 1-Propanol as a solubilization solution and the resulting purple colored solution is quantified by measuring absorbance at 570 nanometers (nm) using a multi-well spectrophotometer.
Protocol for MTT Assay: 100,000 PC3 cells were seeded per-well (CRL-1435, ATCC) for each dose of treatment 24 hours before treatment. Cells were quantitated with Countess II Cell Counter (AMQAX1000, Thermofisher Scientific). Cells were maintained at 37° C. with 5% CO2. SMAPs (dissolved in DMSO) were diluted to a stock concentration of 10 mM. Dilutions to the needed concentrations were made in DMEM (SH30022FS, Hyclone, GE Healthcare Life Sciences). Cells were treated with appropriate concentrations of compound. After 24 hours, MTT solution (M5655-1G, Sigma-Aldrich) was added to cells. Formazan crystals of metabolically active cells were dissolved with 1-Propanol (A414-500, ThermoFisher Scientific) and the solution was measured by absorbance at 570 nm (SpectraMax M5e, Molecular Devices).
Examples 1-3, 7-31, and 33-41 have also been studied in the above-described MTT assay for cell viability at four dose treatments (0, 2.5, 5.0, 10.0 micromolar).
Background: Tetrazolium assays rely on reduction of a dye to a coloured formazan, in cell work by metabolically active cells.

Assay [1] has as its target (Homo sapiens, UniProt O95931). The assay is described as follows: Fluorescence anisotropy (FP) competition binding assay. The conditions noted are these: 10 nM FAM-ANRIL as probe. As for the experimental part:
Fluorescence Anisotropy Binding Assay
Expression and purification of the first bromodomain (BrD1) of human BRD4 in poly-His tag form was performed using a procedure described in the literature [See Zeng et al. Structure 16, 643-652 (2008) and Zhang et al., J Biol Chem 287, 28840-28851 (2012).] The protein was purified by using affinity chromatography on a nickel-IDA column (Invitrogen), followed by the removal of poly-His tag by thrombin cleavage.
Measurements were obtained after 1 hour incubation of the fluorescent ligand and the protein at 25° C. with Safire 2 microplate reader (Tecan). In the assay, fluorescent ligand concentration was ≤2Kd, and protein concentration was set at which 50-80% of fluorescent ligand is bound. Dissociation constant of a competing ligand was calculated with the correction to Cheng-Prussoff equation introduced by Nicolovska-Coleska and colleagues [Nikolovska-Coleska, Z. et al., Anal Biochem 332, 261-273 (2004). Assuming one-site competitive binding model, the equation used to calculate K1's from IC50 values recovered from fitting data using Prism:
where [I50] is the concentration of free inhibitor at 50% inhibition, [L50], the concentration of free labeled ligand at 50% inhibition, and [P0], concentration of free protein at 0% inhibition. Note that Kd for each protein-probe pair is the limit of resolvable K1 in a competition assay.

The next assay deals with CBX7ChD (Homo sapiens (Human), UniProt O95931). The conditions noted are these: cited from earlier work.
Assay [2] has as its system p16INK4a in prostate cancer cells. The conditions noted are these: cited from earlier work.
[3] abbreviates: Homo sapiens, PC-3, 24 hours treatment.

Sequence of (Homo sapiens, UniProt O95931) (O95931 whole entry, looked up): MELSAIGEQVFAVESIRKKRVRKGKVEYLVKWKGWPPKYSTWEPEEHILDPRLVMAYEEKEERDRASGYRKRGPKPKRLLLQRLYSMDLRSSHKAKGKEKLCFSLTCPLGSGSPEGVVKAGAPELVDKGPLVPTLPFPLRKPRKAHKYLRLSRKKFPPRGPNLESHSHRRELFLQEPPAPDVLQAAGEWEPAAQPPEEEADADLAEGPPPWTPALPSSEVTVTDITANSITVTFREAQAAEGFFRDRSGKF
Sequence of CBX7ChD (O95931 11-69): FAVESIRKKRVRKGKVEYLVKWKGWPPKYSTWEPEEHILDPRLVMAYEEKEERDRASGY

A word on the IC50: it is the concentration at which inhibition is half-maximal. Lower therefore signals greater potency. For `Cc1ccccc1Cn1c(=N)n(CC(O)c2ccc(Cl)c(Cl)c2)c2ccc(F)cc21` (stereo not drawn) [Example 2, 1-(3,4-dichlorophenyl)-2-(5-fluoro-2-imino-3-(2-methylbenzyl)-2,3-dihydro-1H-benzo[d]imidazol-1-yl)ethan-1-ol], in the assay on PC3 cells (setting [3]), the IC50 turned out to be 884 nM. In other words, the sub-micromolar range.

The molecule `Cc1ccccc1Cn1c(=N)n(CC(O)c2ccc(Cl)c(Cl)c2)c2ccc(Cl)cc21` (stereo not drawn) [Example 3, 2-(5-chloro-2-imino-3-(2-methylbenzyl)-2,3-dihydro-1H-benzo[d]imidazol-1-yl)-1-(3,4-dichlorophenyl)ethan-1-ol] registered an IC50 in the assay on PC3 cells (setting [3]) of 776 nM.

One may read the Kd as a measure of binding affinity in units of concentration. A high value points to weaker binding. Regarding `C#CCn1c(=N)n(CC(O)c2ccc(Cl)c(Cl)c2)c2ccccc21` (stereo not drawn) [Example 6, 1-(3,4-dichlorophenyl)-2-(2-imino-3-(prop-2-yn-1-yl)-2,3-dihydro-1H-benzo[d]imidazol-1-yl)ethan-1-ol], the dissociation constant (Kd) in assay [1] was found to be 1.53 µM.

In assay [1], `Cc1ccc(Cn2cc(Cn3c(=N)n(CC(O)c4ccc(Cl)c(Cl)c4)c4ccccc43)nn2)cc1` (stereo not drawn) [Example 9, 1-(3,4-dichlorophenyl)-2-(2-imino-3-((1-(4-methylbenzyl)-1H-1,2,3-triazol-4-yl)methyl)-2,3-dihydro-1H-benzo[d]imidazol-1-yl)ethan-1-ol] had a Kd of 0.108 µM. In addition, half-maximal inhibition in the assay on PC3 cells (24 hours treatment) (IC50) required 900 nM.

As to `N=c1n(Cc2cn(Cc3ccccc3F)nn2)c2ccccc2n1CC(O)c1ccc(Cl)c(Cl)c1` (stereo not drawn) [Example 10, 1-(3,4-dichlorophenyl)-2-(3-((1-(2-fluorobenzyl)-1H-1,2,3-triazol-4-yl)methyl)-2-imino-2,3-dihydro-1H-benzo[d]imidazol-1-yl)ethan-1-ol], the midpoint of inhibition in the assay with PC3 cells (setting [3]), the IC50, lay at 1840 nM.

`N=c1n(Cc2cn(-c3ccccc3)nn2)c2cc(Cl)ccc2n1CC(O)c1ccc(Cl)c(Cl)c1` (stereo not drawn) [Example 35, 2-(5-chloro-2-imino-3-((1-phenyl-1H-1,2,3-triazol-4-yl)methyl)-2,3-dihydro-1H-benzo[d]imidazol-1-yl)-1-(3,4-dichlorophenyl)ethanol]: the IC50 in the assay on PC3 cells (setting [3]) is 1120 nM.

As for `Cc1ccccc1Cn1c(=N)n(CC(O)c2ccc(Cl)c(Cl)c2)c2ccccc21.Cl` (stereo not drawn) [MS351], the “selectivity for CBX7ChD (over CBX2/4/6/8)” value at CBX7ChD is “selective for CBX7ChD”. In addition, in assay [2], the “de-repression of p16INK4a” value is given as “de-repress”.
